{"source": "paper PMC6763016", "about": "(PLoS ONE, 2019)", "biological_target": "T1, 5-HT1A autoreceptor (5-HT1AAR) of Tph2-/- mouse dorsal raphe serotonergic neurons (Mus musculus, UniProt Q64264)", "T1 construct": "gene Htr1a", "T1 sequence (Q64264 1-421)": "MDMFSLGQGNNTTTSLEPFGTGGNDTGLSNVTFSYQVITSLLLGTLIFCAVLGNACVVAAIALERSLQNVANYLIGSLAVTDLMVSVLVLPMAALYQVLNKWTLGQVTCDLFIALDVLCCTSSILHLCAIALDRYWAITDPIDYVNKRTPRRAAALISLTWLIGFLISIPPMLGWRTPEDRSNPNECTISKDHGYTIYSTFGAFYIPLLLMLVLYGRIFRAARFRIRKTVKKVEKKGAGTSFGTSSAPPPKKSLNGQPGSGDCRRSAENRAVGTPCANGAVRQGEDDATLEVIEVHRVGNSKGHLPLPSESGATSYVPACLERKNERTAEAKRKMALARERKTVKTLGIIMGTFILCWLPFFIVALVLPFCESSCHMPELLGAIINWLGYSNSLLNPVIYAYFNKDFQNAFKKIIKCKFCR", "conditions": "agonist; 10 μM phenylephrine and synaptic blockers present; 34-36 °C; four of nine neurons (those silenced by 1 μM)", "data": [{"compound": "O=c1n(CCCN2CCN(c3cccc(Cl)c3)CC2)nc2ccccn12", "note": "[Trazodone]", "values": [{"measurement": "% decrease of firing at 1 μM", "value": "96.1 ± 7.3", "unit": "%"}]}]}
